The text below walks through data of patent publication US6469027B1, “N-methyl-D-aspartate (NMDA) receptor blockers for the prevention of atherosclerosis” (The Board of Regents of the University of Nebraska, priority 1996, dated 2002).

For one assay, the system named is N-VSMC. The experiment in a line: [3H]thymidine incorporation (DNA synthesis) in N-VSMC cultures. Format: cell-based, chicken. The protocol: FIG. 1 is a graph illustrating homocysteine's effects on the growth of VSMC cultures. Confluent N-VSMC cultures were growth arrested by incubating cells with M199 medium containing 1 μg/ml BSA for 48 h, exposed to various concentrations of H[cys] (0.01-4000μM) for 30 h, pulse labeled for 6 h with 2 μCi/ml [^3H]-thymidine, and cell monolayers were washed twice with cold (0° C.) 10% trichloroacetic acid (TCA). The amount of [^3H]-thymidine incorporation was determined by scintillation spectrophotometry. Results are shown as the means of ±S.D.
FIGS. 2A-2C are graphs illustrating the effects of glutamate, homocysteic acid and NMDA on DNA synthesis in N-VSMC. N-VSMC were cultured and serum-deprived as described in “Experimental Procedures.” Cultures were treated with various concentrations of homocysteic acid (2A), NMDA (2B), or L-glutamate (2C) for 30 and pulsed 6h with [^3H] thymidine. All values are expressed as ±S.D. of six independent experiments completed in quadruplicate.
Smooth Muscle Culture: The thoracic (N) and abdominal (M) aorta of normal 16 and 18-day embryos were cleaned of fat, and the intima-media was isolated from the adventitia. The intima-media was enzymatically dispersed into a single cell suspensions by a combination of collagenase and elastase followed by trypsin. VSMC were placed in primary culture at a constant density of 2×10^4 cells/cm^2 in multiwell plates or 100 mm culture plates in Medium 199 supplemented with 10% fetal bovine serum (FMS) and 2 mM glutamine, in an atmosphere of 95% air: 5% Co2 at 37° C. Primary cultures were grown for 7 days before they were seeded into first passage at the same cell density and grown to confluence. Experiments were carried out between passages 3-6. Experimental conditions for all cells included 48 h in Medium 199 supplemented with 1% FBS prior to initiating and experiment.
DNA Synthesis: Growth factors were added directly to quiescent VSMCs in Medium 199 as described above. The cells were pulsed between 4-6 h with a final concentration of 2-5 μCi/ml [^3H]thymidine added at the times and for the periods indicated in the figure legends. The cells were washed, and the incorporation of [^3H]thymidine into acid insoluble material was determined as previously described. Den-Heijer, M. et al. (1996), Hyperhomocystinemia as a risk factor for deep-vein thrombosis. N. Eng. J. Med. 334(12):759-762.
On the technique in general: Incorporation of labelled thymidine or its analogues reports DNA synthesis.

Another assay relates to c-fos. The experiment in a line: c-fos mRNA in N-VSMC (RNA blot). Format: cell-based, chicken. The procedure: FIGS. 3A, 3B and 3C are RNA blot analyses of c-fos and c-myb mRNA isolated from N-VSMC cultures. Cultures were incubated in the absence and presence of 200μM H[cys] for 0, (lane 1); 15 min, (lane 2); 30 min, (lane 3); 45 min, (lane 4) and 60 min, (lane 5); and analyzed for c-fos expression. In FIG. 3B, the time course of c-myb MRNA induction in the presence of 200μM H[cys] for 0 h, (lane 1); 8 h, (lane 2); 16 h, (lane 3); 24 h, (lane 4). The c-fos transcripts were analyzed by northern blot and normalized to β actin expression. The amount of c-myb mRNA levels were normalized to estrogen receptor (ER) transcripts as determined by RT-PCR. […] The amount of c-myb mRNA levels were normalized to estrogen receptor (ER) transcripts as determined by RT-PCR. The amount of specific radiolabeling in the autoradiograph was quantified by scanning densitometry. The size of the c-Myb protein is 75 kilodaltons. The 75 kilodalton band is defined as c-Myb because immunoprecipitation of this protein was not detected in the presence of synthetic polypeptide [[…] encoded by sequences 1080-1133].
RNA Blot Analysis: Total RNA was isolated from VSMC derived from thoracic and abdominal aorta by homogenization, and lysis with guanidinium isothiocyanate was followed by phenol-chloroform extraction. […]

In assay [1] the test system is Thoracic aorta VSMC from E14 embryos. The experiment in a line: Intracellular Ca++ by Fura 2 fluorometry. Format: cell-based, chicken. The settings on record: 200 μM Hcy. The protocol:
FIGS. 8A and 8B are graphs illustrating E14 embryonic neural crest-derived response to Hcy. (A) Normal E14 cell response; (B) Ca++ influx is prevented by 15 min pretreatment with NMDA receptor blocker MK801, which acts at the NMDA receptor calcium channel.
The most common signaling device for mitosis is calcium influx. Therefore, the inventors measured the change in intracellular Ca^++ by Fura 2 fluorometry. Thoracic aorta VSMC from E14 embryos were harvested and grown on coverslips using the procedure set forth above. Fura 2 was added during 45 minutes at room temperature. Then the cover slips were placed in a photometer. Fura 2 was excited at 350 and 380 nm with a xenon light source, appropriate monochromators and a chopper (Deltascan, Princeton). Emitted signals passed through a 510±20 band pass filter. When the cells were treated with a solution of 200 μM Hcy, there was a rapid flux of Ca^++ that reached a plateau in about 50 seconds, and remained elevated for the duration of the 500 sec measurement interval as shown in FIGS. 8A and 8B. Similar results have been found with adult rabbit aortic smooth muscle cells, as set forth below.

A further assay concerns Myb protein. The experiment in a line: Expression of Myb protein in rabbit aortic cells. The format is cell-based. The procedure: For each of the following experiments, aortic smooth muscle cells were obtained from 2-3 lb. New Zealand rabbits; these cells were cultured as described above, and evaluated for their responses to Hcy.
Where [2] appears, read: neural crest derived smooth muscle cells.

In the case of `N[C@@H](CCS)C(=O)O` [homocysteine], the DNA synthesis increased in the assay on N-VSMC (N-VSMC incubated with 0.01 to 4000 μM homocysteine, dose dependent and saturable) is listed as 12 fold; with N-VSMC (setting [2]) it was 5 fold. The “DNA synthesis at high concentration” value in the assay with N-VSMC (homocysteine concentrations above 300 μM) is “completely suppressed”. Also, the “c-fos mRNA transcripts induced” value with c-fos (200 μM homocysteine) amounted to 15 fold. Also, the c-fos induction entry in the assay with c-fos (setting [2]) is on record as “induced”. For the same molecule, in assay [1], the “time for Ca++ flux to reach a plateau” value was “about 50 seconds”. For the same molecule, the “expression of the Myb protein” value in the assay on Myb protein is reported as “dose-responsive expression”.
